Results reported in patent US4652586A, “Selective beta-2 adrenergic antagonists for the treatment of glaucoma” (priority 1980, dated 1987).
“Also recorded” adds a separate entry of the source. Counter-ions that a name gives are not always drawn. Like-named read-outs stand apart in the source and are kept apart here.

Key:
[1] = molecular target: T1, rabbit ciliary process adenylate cyclase (beta2-adrenergic receptors) (Oryctolagus cuniculus, UniProt G1TAV7); assay: rabbit ciliary process isoproterenol-stimulated adenylate cyclase; assay type: biochemical; conditions: Table III; rabbit ciliary process, isoproterenol-stimulated
T1 construct: Homogenates or washed particulate preparations (10 mg/ml) in 6 mM Tris-maleate, pH 7.4, are prepared from the various tissues to be studied; from tissue; host or cells: rabbit ciliary process

[2] = tested on: rabbit ciliary process adenylate cyclase (beta2-adrenergic receptors); assay: as above; assay type: biochemical; conditions: for Ki heart / Ki Ciliary Process = beta2/beta1 potency ratio: Table III, rabbit heart vs rabbit ciliary process, ±20%
[3] = molecular target: rabbit heart isoproterenol-stimulated adenylate cyclase; assay: rabbit heart isoproterenol-stimulated adenylate cyclase; assay type: biochemical
heart adenylate cyclase = conditions: Table I, data from Minneman et al, cited from earlier work; for Ki: antagonists, read-out: Adenylate Cyclase Ki, Heart (G)
[4] = molecular target: beta1-adrenergic receptor present in mammalian heart; conditions: Table I; data from Minneman et al; read-out: Kd for IHYP Binding, Heart (E); cited from earlier work
adult female cats = conditions: Colasanti and Trotter 1979; cited from earlier work
rabbit eyes = assay: intraocular pressure in normal rabbit eyes after topical application; conditions: for IOP in the contralateral eye: 0.5% topical to ipsilateral eye, presumably systemic absorption; for IOP in ipsilateral eyes compared to predrug readings: two 50 microliter doses, normal rabbit, FIG. 2
iris adenylate cyclase = iris adenylate cyclase stimulation; assay type: biochemical
Excerpt: (§1) The discovery that the ciliary process of the mammalian eye contains β2 -adrenergic receptors is based on the technique of measuring adenylate cyclase, an enzyme which synthesizes cyclic AMP from ATP. It has been established that receptor binding of beta adrenergic agonists is associated with a concomitant activation of adenylate cyclase. (Robison, G. A., et al, Cyclic AMP, Academic Press, New York, 1971, and Wolfe, B. B., et al, Annual Reviews of Pharmacology and Toxicology, 17:575-604 (1977)). […] Beta adrenergic sensitive adenylate cyclase activity was thus identified and characterized in the ocular tissues of several mammalian species such as rabbits, cats, dogs, monkeys and humans. After isolation of the ciliary process, adenylate cyclase activity was measured, and its activation by agonists or inhibition by antagonists was measured. […].
(§2) For ciliary body, maximal stimulation was 15% of the stimulation seen in the ciliary process, and for iris, maximal stimulation was 22% for that seen in the ciliary process. […];

[5] = tested on: ciliary body adenylate cyclase; assay: ciliary body adenylate cyclase stimulation; assay type: biochemical
Excerpt: as §1, §2

[6] = Table III, rabbit heart, isoproterenol-stimulated, read-out: Adenylate Cyclase Ki, Heart

T1 sequence (G1TAV7 1-437): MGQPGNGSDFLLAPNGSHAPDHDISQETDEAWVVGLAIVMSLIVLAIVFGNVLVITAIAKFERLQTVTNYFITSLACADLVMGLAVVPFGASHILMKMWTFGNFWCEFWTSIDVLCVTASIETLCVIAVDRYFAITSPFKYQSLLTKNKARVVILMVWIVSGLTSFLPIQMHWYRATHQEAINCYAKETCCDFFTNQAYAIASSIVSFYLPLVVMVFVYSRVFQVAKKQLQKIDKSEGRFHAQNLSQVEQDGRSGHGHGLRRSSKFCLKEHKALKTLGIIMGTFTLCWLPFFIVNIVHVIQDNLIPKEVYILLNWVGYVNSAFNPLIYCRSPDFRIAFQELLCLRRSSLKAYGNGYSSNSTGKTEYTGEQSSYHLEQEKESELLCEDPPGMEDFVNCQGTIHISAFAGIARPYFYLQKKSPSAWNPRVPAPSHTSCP

## CC(C)NCC(O)COc1ccc(CC(N)=O)cc1 (stereo not drawn) [Atenolol, atenolol]
[1]
  Ki: 11 µM

## COc1ccc(OC)c(C(O)C(C)NC(C)(C)C)c1 (stereo not drawn) [Butoxamine]
[1]
  Ki: 1.4 µM
[2]; Table II, from Table I, accurate to ±20%
  β2/β1 potency ratio (Ki heart/Ki ciliary process): 1.50
[2]
  Ki heart / Ki Ciliary Process = beta2/beta1 potency ratio: 6.8
[3]; [6]
  Ki: 9.5 µM
Heart adenylate cyclase
  Ki: 9.5 µM

## CNC[C@H](O)c1ccc(O)c(O)c1 [Epinephrine]
Heart adenylate cyclase; agonists, NE = no effect as agonist
  Adenylate Cyclase Ka, Heart (G): 1.5 µM

## Cc1ccc(C(O)C(C)NC(C)C)cc1 (stereo not drawn) [H35/25, (1(4'-methyl phenyl)-2-isopropylaminopropanol)]
[1]
  Ki: 0.79 µM
[2]
  Ki heart / Ki Ciliary Process = beta2/beta1 potency ratio: 8.8
[2]; rabbit, heart vs ciliary process
  β2/β1 potency ratio (Ki heart/Ki ciliary process): 3.1
[4]
  Kd: 1.97 µM
Adult female cats
  maximal reduction of intraocular tension: about the same maximal reduction as timolol
[3]; [6]
  Ki: 7 µM
Heart adenylate cyclase
  Ki: 7 µM

## CC(C)(C)NCC(O)CON=C1c2ccccc2-c2ccccc21 (stereo not drawn) [IPS 339, (t-butyl-amino 3-ol-2-propyl)oximino-9 fluorene, hydrochloride]
[3]; Table I, footnote ++ present invention, read-out: Adenylate Cyclase Ki, Heart (G)
  Ki: 0.84 µM
[3]; [6]
  Ki: 0.84 µM
Rabbit eyes
  IOP in the contralateral eye: significant decrease in IOP in the contralateral eye
Rabbit eyes; 0.5% topical
  IOP in ipsilateral eyes compared to predrug readings: significant decrease in IOP in ipsilateral eyes at 2 and 3 hours after application
Rabbit eyes; 0.5% topical, at 3 hours
  extent of IOP decrease, IPS 339 compared with timolol: significantly more than that caused by timolol
Rabbit eyes; 0.5% topical, compared with timolol
  magnitude of contralateral IOP effect: somewhat less for IPS 339 than for timolol

## CC(C)NCC(O)c1ccc(O)c(O)c1 (stereo not drawn) [Isoproterenol, isoproterenol]
Iris adenylate cyclase
  maximal stimulation, iris: 22 % for that seen in the ciliary process
[5]
  maximal stimulation, ciliary body: 15 % of the stimulation seen in the ciliary process

## CC(=O)Nc1ccc(OCC(O)CNC(C)C)cc1 (stereo not drawn) [Practolol, practolol]
[1]
  Ki: 21 µM
[3]; [6]
  Ki: 6.8 µM
Heart adenylate cyclase
  Ki: 6.8 µM

## CC(C)(C)NC[C@H](O)COc1nsnc1N1CCOCC1 [Timolol, timolol]
[1]
  Ki: 0.0045 µM
[3]; [6]
  Ki: 0.016 µM
Rabbit eyes
  IOP in the contralateral eye: significant decrease in IOP in the contralateral eye
Rabbit eyes; 0.5% topical
  IOP in ipsilateral eyes compared to predrug readings: significant decrease in IOP in ipsilateral eyes at 2 and 3 hours after application; also recorded: significant decrease at 1 hour
Heart adenylate cyclase
  Ki: 0.016 µM
